Assay results from ChEMBL document CHEMBL5728757, “Cyano substituted heteroarylpyrimidinone derivative, preparation method and use thereof” (2021).

Target: Acetyl-CoA carboxylase 1 (Homo sapiens, UniProt Q13085)
Assay: etermination of IC50 of Inhibition of Enzymatic Activity of ACC1 and ACC2 by the Compound of the Present Disclosure: The degree of inhibition of the enzymatic activity of recombinant human ACC1, ACC2 proteins under in-vitro conditions by the preferred compounds of the present disclosure is determined by the following method.The principle of the method was based on the reaction of ACC protein-catalyzed acetyl-CoA to form malonyl-CoA. ATP was consumed during this reaction and ADP was produced. The produced ADP was reconverted into ATP by using ADP-Glo™ Kinase Kit from Promega. This part of ATP reacted with the luciferase-fluorescence in the kit, and generated chemiluminescent signals. Thus, by measuring the intensity of chemiluminescent signal, the amount of ADP produced in the catalytic reaction was reflected, thereby indirectly determining the enzymatic activity of ACC protein and the effect of the tested compound on the enzymatic activity. […]

- IC50: 13.1 nM
Compound: CCOc1ccc(F)cc1[C@H](Cn1c(=O)n(C(C)(C)C(N)=O)c(=O)c2c(C)c(C#N)sc21)OC1CCOCC1
